Measured values: ChEMBL document CHEMBL5375979, “Chemical, Biochemical, Cellular, and Physiological Characterization of Leucettinib-21, a Down Syndrome and Alzheimer's Disease Drug Candidate” (J Med Chem, 2023)

Columns and labels:
[1] = molecular target: cGMP-dependent protein kinase 2 (Homo sapiens, UniProt Q13237)
Description: Inhibition of human PRKG2 assessed as remaining activity by eurofins-cerep kinase profiler analysis

[2] = molecular target: Maternal embryonic leucine zipper kinase (Homo sapiens) (UniProt Q14680); details: dose 10.0 µM
[3] = molecular target: Casein kinase II subunit alpha (Homo sapiens) (UniProt P68400); details: dose 10.0 µM
[4] = molecular target: T1, Dual specificity protein kinase CLK1 (Homo sapiens, UniProt P49759)
[5] = molecular target: Mitogen-activated protein kinase 15 (Homo sapiens) (UniProt Q8TD08); details: dose 10.0 µM
[6] = molecular target: Homeodomain-interacting protein kinase 4 (Homo sapiens, UniProt Q8NE63)
Description: Inhibition of human HIPK4 assessed as remaining activity by eurofins-cerep kinase profiler analysis

[7] = molecular target: Serine/threonine-protein kinase PIM (Homo sapiens) (UniProt P11309+Q9P1W9+Q86V86); details: dose 10.0 µM
[8] = molecular target: T1, Dual specificity protein kinase CLK1; remark: listed apart in the source
[9] = molecular target: Cyclin-dependent kinase-like 1 (Homo sapiens, UniProt Q00532)
Description: Inhibition of human CDKL1 assessed as remaining activity by eurofins-cerep kinase profiler analysis

[10] = molecular target: T2, Dual specificity tyrosine-phosphorylation-regulated kinase 3 (Homo sapiens, UniProt O43781)
T2 sequence (O43781 whole entry): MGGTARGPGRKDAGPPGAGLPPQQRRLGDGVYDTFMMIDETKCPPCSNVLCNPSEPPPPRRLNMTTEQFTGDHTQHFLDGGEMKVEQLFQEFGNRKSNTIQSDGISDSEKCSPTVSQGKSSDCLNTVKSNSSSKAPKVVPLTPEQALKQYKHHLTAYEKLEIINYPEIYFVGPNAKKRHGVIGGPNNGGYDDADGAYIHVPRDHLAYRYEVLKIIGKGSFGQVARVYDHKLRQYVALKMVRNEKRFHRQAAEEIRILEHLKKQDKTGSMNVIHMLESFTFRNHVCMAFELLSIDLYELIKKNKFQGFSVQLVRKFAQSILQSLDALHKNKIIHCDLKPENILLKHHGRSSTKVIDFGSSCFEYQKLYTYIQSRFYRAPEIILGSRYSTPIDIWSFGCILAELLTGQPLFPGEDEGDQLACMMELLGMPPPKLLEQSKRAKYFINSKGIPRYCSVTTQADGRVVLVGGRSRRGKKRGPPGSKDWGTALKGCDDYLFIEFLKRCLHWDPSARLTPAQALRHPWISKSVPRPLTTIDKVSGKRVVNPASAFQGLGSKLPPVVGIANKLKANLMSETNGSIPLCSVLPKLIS
Description: Inhibition of human DYRK3 assessed as remaining activity by eurofins-cerep kinase profiler analysis

[11] = molecular target: Transcription initiation factor TFIID subunit 1-like (Homo sapiens, UniProt Q8IZX4)
Description: Inhibition of human TAF1L assessed as remaining activity by eurofins-cerep kinase profiler analysis

[12] = molecular target: Dual specificity protein kinase CLK4 (Homo sapiens, UniProt Q9HAZ1)
Dual specificity protein kinase CLK4, sequence (Q9HAZ1 whole entry): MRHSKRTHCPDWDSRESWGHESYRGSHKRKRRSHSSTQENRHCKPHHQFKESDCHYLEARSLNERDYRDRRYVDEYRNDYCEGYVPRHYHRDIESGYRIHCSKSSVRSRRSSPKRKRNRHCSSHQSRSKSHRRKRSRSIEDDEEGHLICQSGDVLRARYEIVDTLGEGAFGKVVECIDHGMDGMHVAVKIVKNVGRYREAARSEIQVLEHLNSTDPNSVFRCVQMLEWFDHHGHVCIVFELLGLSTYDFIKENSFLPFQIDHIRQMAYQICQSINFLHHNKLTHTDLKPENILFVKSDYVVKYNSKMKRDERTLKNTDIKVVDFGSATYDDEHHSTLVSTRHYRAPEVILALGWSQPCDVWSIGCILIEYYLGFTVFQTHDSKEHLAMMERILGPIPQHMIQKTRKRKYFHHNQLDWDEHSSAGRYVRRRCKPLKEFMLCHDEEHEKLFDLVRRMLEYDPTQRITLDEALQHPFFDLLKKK

T1 sequence (P49759 whole entry): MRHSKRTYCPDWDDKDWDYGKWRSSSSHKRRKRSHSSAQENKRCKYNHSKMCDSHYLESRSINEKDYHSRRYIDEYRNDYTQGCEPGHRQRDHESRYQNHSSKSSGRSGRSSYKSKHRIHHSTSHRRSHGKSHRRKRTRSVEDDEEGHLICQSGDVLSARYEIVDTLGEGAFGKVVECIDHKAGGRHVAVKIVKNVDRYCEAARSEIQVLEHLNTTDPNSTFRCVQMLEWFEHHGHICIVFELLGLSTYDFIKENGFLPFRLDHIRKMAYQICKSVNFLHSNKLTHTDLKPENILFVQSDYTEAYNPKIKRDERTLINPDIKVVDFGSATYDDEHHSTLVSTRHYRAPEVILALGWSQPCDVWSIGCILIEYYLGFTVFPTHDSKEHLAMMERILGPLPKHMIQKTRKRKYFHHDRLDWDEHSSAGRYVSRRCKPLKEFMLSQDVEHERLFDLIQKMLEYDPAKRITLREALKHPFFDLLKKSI
Transcription initiation factor TFIID subunit 1-like, sequence (Q8IZX4 whole entry): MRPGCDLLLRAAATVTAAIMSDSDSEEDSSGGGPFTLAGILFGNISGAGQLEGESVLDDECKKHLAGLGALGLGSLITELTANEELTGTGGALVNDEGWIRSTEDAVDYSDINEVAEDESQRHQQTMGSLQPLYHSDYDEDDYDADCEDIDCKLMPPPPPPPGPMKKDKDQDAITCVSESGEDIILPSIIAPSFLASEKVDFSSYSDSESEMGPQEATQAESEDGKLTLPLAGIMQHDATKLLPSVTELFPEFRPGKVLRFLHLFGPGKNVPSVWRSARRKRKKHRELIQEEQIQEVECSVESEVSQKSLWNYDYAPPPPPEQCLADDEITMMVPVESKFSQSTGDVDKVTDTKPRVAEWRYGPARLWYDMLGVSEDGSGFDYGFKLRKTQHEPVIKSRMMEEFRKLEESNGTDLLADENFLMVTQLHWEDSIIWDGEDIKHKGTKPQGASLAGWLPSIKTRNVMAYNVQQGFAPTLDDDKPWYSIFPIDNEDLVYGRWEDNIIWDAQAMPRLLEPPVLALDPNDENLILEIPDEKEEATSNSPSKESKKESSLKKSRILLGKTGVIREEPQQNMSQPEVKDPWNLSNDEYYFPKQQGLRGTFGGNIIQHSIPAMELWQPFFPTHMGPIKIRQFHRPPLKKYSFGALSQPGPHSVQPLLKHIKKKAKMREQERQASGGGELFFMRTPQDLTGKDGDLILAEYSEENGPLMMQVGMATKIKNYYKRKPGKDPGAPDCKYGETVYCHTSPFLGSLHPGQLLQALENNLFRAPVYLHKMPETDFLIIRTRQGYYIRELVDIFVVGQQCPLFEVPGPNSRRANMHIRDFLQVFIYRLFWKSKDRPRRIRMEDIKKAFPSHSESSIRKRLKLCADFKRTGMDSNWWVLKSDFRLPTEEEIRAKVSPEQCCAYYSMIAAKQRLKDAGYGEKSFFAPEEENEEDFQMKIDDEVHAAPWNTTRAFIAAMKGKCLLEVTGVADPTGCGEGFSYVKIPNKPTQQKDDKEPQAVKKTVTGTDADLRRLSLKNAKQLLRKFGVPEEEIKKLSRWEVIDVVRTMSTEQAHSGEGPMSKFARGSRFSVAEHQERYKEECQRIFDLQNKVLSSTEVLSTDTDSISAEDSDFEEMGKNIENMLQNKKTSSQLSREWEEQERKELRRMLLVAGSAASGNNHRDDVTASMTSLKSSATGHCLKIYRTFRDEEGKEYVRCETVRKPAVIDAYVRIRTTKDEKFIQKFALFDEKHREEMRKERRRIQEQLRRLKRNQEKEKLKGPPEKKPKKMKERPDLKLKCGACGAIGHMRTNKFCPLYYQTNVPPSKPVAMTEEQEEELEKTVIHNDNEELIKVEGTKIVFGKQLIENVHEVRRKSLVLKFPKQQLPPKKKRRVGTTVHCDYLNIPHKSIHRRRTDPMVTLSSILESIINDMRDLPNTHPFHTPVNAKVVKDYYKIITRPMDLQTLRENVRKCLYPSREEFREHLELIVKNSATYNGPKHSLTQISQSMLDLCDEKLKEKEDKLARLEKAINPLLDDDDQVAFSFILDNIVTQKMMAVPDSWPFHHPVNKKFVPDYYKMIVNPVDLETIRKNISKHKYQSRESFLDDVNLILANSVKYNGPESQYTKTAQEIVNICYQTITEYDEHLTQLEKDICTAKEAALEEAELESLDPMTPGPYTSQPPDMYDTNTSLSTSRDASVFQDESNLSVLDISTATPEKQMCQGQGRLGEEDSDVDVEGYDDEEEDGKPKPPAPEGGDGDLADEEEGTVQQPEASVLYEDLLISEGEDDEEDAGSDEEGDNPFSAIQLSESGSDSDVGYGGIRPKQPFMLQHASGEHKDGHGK
Cyclin-dependent kinase-like 1, sequence (Q00532 whole entry): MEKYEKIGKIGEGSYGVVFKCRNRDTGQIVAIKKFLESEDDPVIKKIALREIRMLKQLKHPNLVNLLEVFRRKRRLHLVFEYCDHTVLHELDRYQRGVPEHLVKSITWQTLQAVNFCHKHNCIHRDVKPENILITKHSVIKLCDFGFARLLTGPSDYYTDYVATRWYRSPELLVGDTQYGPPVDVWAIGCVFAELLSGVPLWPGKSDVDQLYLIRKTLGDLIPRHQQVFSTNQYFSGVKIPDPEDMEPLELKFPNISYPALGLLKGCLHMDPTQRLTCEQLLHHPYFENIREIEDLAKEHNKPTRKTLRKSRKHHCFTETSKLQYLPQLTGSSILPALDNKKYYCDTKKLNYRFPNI
Mitogen-activated protein kinase 15 (Homo sapiens), sequence (Q8TD08 whole entry): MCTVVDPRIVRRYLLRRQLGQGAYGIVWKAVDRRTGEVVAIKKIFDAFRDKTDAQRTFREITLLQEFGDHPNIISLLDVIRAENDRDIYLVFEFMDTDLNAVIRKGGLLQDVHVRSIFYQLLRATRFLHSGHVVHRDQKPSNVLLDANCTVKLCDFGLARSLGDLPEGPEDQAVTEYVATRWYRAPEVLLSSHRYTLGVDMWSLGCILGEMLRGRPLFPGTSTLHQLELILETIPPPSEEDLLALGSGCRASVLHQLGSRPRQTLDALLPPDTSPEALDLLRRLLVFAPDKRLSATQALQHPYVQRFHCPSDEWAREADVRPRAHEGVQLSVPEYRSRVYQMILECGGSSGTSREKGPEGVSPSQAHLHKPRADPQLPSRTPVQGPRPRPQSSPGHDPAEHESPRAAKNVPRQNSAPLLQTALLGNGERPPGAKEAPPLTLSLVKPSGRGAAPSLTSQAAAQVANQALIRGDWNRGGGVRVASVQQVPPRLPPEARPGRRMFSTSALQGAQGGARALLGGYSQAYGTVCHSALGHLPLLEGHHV
Homeodomain-interacting protein kinase 4, sequence (Q8NE63 whole entry): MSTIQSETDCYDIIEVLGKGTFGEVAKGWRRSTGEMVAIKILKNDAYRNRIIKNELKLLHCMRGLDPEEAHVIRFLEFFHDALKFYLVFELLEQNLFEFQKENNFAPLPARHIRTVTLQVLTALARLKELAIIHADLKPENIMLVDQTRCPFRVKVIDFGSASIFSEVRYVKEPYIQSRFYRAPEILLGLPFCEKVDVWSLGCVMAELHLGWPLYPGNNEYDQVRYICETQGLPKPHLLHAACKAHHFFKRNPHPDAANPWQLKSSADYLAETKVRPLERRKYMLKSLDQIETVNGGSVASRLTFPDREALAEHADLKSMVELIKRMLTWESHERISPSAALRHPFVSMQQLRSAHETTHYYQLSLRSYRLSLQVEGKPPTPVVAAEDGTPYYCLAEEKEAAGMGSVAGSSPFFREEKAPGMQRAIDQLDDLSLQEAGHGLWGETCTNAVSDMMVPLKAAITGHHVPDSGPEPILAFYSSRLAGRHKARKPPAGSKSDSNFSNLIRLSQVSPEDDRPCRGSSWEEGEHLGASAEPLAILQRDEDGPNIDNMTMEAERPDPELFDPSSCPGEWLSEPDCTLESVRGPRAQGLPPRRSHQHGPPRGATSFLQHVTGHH
Maternal embryonic leucine zipper kinase (Homo sapiens), sequence (Q14680 whole entry, looked up): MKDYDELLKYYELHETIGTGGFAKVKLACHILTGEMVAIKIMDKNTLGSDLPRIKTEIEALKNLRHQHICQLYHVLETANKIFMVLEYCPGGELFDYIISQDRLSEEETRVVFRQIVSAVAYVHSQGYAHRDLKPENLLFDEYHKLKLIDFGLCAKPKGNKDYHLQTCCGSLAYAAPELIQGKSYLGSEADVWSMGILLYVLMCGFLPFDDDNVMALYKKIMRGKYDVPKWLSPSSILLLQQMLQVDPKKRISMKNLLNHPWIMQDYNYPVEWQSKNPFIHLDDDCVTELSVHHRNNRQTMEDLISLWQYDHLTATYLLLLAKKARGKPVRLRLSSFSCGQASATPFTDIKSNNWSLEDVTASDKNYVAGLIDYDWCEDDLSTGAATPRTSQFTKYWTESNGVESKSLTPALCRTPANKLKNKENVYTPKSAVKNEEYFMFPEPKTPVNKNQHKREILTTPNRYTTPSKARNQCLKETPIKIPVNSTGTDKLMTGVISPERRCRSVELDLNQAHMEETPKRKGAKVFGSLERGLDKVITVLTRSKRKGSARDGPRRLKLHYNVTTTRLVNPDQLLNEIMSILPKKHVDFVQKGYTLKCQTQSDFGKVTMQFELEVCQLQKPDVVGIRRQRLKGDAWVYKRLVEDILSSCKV

IC50 [1]: > 10 µM | ΔTm [2]: 0.4 °C | ΔTm [3]: 1.4 °C | IC50 [4]: > 10 µM | IC50 [6]: > 10 µM | ΔTm [7]: 4.5 °C | IC50 [8]: > 1 µM | IC50 [9]: > 1 µM | IC50 [10]: > 1 µM | IC50 [11]: > 1 µM | IC50 [12]: > 10 µM
SMILES: COC[C@@H](CC(C)C)NC1=N/C(=C\c2ccc3scnc3c2)C(=O)N1
ΔTm [5]: 4.7 °C
